Measurements from patent publication US20060148840A1, “Pyrrolodihydroisoquinolines as pde10 inhibitors” (Altana Pharma AG, priority 2003, published 2006).

First: CCOC(=O)c1c(-c2cccc(N(C)C)c2)c(C)n2c1-c1cc(OC)c(OC)cc1CC2(C)C [Example 4, 2-(3-Dimethylamino-phenyl)-8,9-dimethoxy-3,5,5-trimethyl-5,6-dihydro-pyrrolo[2,1-a]isoquinoline-1-carboxylic acid ethyl ester]
Second: COC(=O)c1c(-c2cc(C)c(O)c(C)c2)c(C)n2c1-c1cc(OC)c(OC)cc1CC2C (centres unmarked) [Example 65, 2-(4-Hydroxy-3,5-dimethyl-phenyl)-8,9-dimethoxy-3,5-dimethyl-5,6-dihydro-pyrrolo[2,1-a]isoquinoline-1-carboxylic acid methyl ester]
The melting point of the first is lower: 101 to 102 °C for the first, 177 to 179 °C for the second.

Compared with COc1cc2c(cc1OC)-c1c(C#N)c(-c3cccc4ccccc34)c(C)n1CC2 [Example 22, 8,9-Dimethoxy-3-methyl-2-naphthalen-1-yl-5,6-dihydro-pyrrolo[2,1-a]isoquinoline-1-carbonitrile], COc1cc2c(cc1OC)-c1c(C#N)c(-c3cn(S(C)(=O)=O)c4ccccc34)c(C)n1C(C)C2 (centres unmarked) [Example 40, 2-(1-Methanesulfonyl-1H-indol-3-yl)-8,9-dimethoxy-3,5-dimethyl-5,6-dihydro-pyrrolo[2,1-a]isoquinoline-1-carbonitrile] is lower in melting point: 226 to 229 °C for the first, 219 to 221 °C for the second.

First: COC(=O)CCc1c(-c2ccncc2)c(C#N)c2n1CCc1cc(OC)c(OC)cc1-2 [Example 29, 3-(1-Cyano-8,9-dimethoxy-2-pyridin-4-yl-5,6-dihydro-pyrrolo[2,1-a]isoquinolin-3-yl)-propionic acid methyl ester]
Second: COc1cc2c(cc1OC)-c1c(C#N)c(-c3ccnc(C)c3)c(C)n1C(C)C2 (centres unmarked) [Example 45, 8,9-Dimethoxy-3,5-dimethyl-2-(2-methyl-pyridin-4-yl)-5,6-dihydro-pyrrolo[2,1-a]isoquinoline-1-carbonitrile]
The melting point of the first is higher: 191 to 193 °C for the first, 187 to 189 °C for the second.

First: CCOc1cc2c(cc1OC)-c1c(C#N)c(-c3cc(C)c(O)c(C)c3)c(C)n1C(C)C2 (centres unmarked) [Example 53, 8-Ethoxy-2-(4-hydroxy-3,5-dimethyl-phenyl)-9-methoxy-3,5-dimethyl-5,6-dihydro-pyrrolo[2,1-a]isoquinoline-1-carbonitrile]
Second: COc1cc2c(cc1OC)-c1c(C)c(-c3cc(C)c(O)c(C)c3)c(C)n1CC2 [Example 68, 4-(8,9-Dimethoxy-1,3-dimethyl-5,6-dihydro-pyrrolo[2,1-a]isoquinolin-2-yl)-2,6-dimethyl-phenol]
The melting point of the first is higher: 232 to 234 °C for the first, 183 to 185 °C for the second.
